Laboratory results reported in patent US5559145A, “1,2,4-trioxane derivatives” (priority 1995, dated 1996).

Legend:
Onchocerca gutturosa [1] = assay: Activity against Onchocerca gutturosa assessed by motility (parasites, medium, serum, cells and test drugs); format: cell-based; design: reduction of motility: concentration or dose not given beside the values; conditions: with cells
Description: Testing in vitro against Onchocerca gutturosa is a valid model for activity against Onchocerca volvulus.
(§1) Testing of test drugs (Compounds 1, 2, 3, 4, 5, 7, 8, 9, 11, and 12 of Table 1 ) against the parasitic worms Onchocerca gutturosa was carried out in accordance with the method described in J Helminth (1987) 60, 271, firstly using parasites, medium, serum, cells and test drugs.

T. gondii [2] = assay: Activity against T. gondii within HeLa cells, assessed by light microscopy; format: cell-based, Toxoplasma gondii (in HeLa (ATCC CCL2) cells); conditions: for Mean T. gondii per infected vacuole: HeLa (no drug: 8.1); for % infected cells: HeLa (no drug: 49); for T. gondii per 100 cells: HeLa (no drug: 620); for block of parasite growth: in words, HeLa cells
Description: Confluent epithelium-like HeLa (ATCC CCL2) cell monolayers growing on 6-well plastic multidish (9.6 cm^2, Nunc, Roskilde, Denmark) were used. After washing with HBSS, the monolayers were infected with 3×10^6 ml^-1 T. gondii in M199-3% FCS (total amount per well, 3 ml) for 1 h, washed twice with HBSS, and the drugs were added with M199-10% FCS over 22 h. Monolayers were then fixed, Giemsa-stained and-assessed by light microscopy.

T. gondii [3] = assay: Activity against T. gondii within macrophages, assessed by light microscopy; format: cell-based, Toxoplasma gondii (in murine peritoneal macrophages); design: % infected cells / Mean T. gondii per infected vacuole / T. gondii per 100 cells: dose or concentration left out as unconfirmed; conditions: for Mean T. gondii per infected vacuole: macrophages (no drug: 4.3); for % infected cells: macrophages (no drug: 42); for T. gondii per 100 cells: macrophages (no drug: 191); for activity compared with pyrimethamine and pyrimethamine + sulfadiazine / inhibition of the intracellular growth of toxoplasma: in words, at respective IC90 values
Description: Unelicited murine peritoneal macrophages obtained by washing the peritoneal cavities of Swiss-Webster mice with 3 ml of Hanks' Balanced Salt Solution (HBSS) (4° C.) containing 5 U ml of heparin were purified by centrifugation in Ficoll-Paque (Pharmacia) 500×g for 15 min, pooled and suspended in medium 199 (M199) containing 10% heat-inactivated (56° C. for 60 min) fetal calf serum (FCS). An amount of […] was seeded into each well of 96-well dishes (Costar) and allowed to adhere during 2-3 h at 37° C. in an 5% CO2 -95% air atmosphere. The nonadherent cells were removed by washing twice with prewarmed HBSS and challenged with 3 ×10 tachyzoites of the RG strain of […] in M199-3% FCS for 1 h. After washing twice with HBSS, the infected monolayers received the test drugs (Compounds 1 to 10 of Table 1) at various concentrations in M199-10% FCS. The monolayers were then pulsed with […] of [3H]uracil (Amersham) during a period of 18 h. The acid-precipitable radioactivity on each well was counted by using a filtration procedure and the IC90 was calculated by probit analysis.
2×10^6 of the macrophage cells were seeded into each chamber of four-chamber glass slides (Lab-Tek). After removing nonadherent cells with HBSS, the monolayers were infected with 2×10^6 T. gondii for 1 h followed by addition of the drugs with the media over 18 h. Monolayers were fixed with 0.4% 9-aminoacridine (50% ethanol-water vol/vol), Giemsa-stained, and assessed by light microscopy. The results are shown in the following Table 6, including results of control compounds: […]

Onchocerca gutturosa [4] = assay: Activity against Onchocerca gutturosa assessed by motility (parasites, medium and drug); format: cell-based; conditions: for motility / effect on worm motility: without cells; for effect on worm motility: in words
Description: as §1
Secondly, test drugs (Compounds 2, 3, 4, 7,. 8, 9 and 12 of Table 1) were tested using parasites, medium and drug. […] Under these conditions, commercial anti-helminthic drugs and artemisinin also cut motility by some 30-40%.

[5] = system: in vitro mitogenic assay; mixed lymphocyte reaction; assay: Immunomodulatory activity (in vitro mitogenic assay; mixed lymphocyte reaction); format: cell-based; conditions: in words
Description: Several of the compounds mentioned in Examples 1 to 17 were also tested for immunomodulatory activity (in vitro mitogenic assay; mixed lymphocyte reaction).

Onchocerca gutturosa [6] = assay: Activity against Onchocerca gutturosa, tetrazolium colorimetric test (parasites, medium, cells and test drug); format: cell-based; conditions: with cells; for inhibition at 50 µM: Onchocerca gutturosa, 5×10^-5 M, read-out: inhibition of formazan formation
Description: (§2) A suitable colorimetric assay uses formation of formazan, a blue dye, from tetrazolium cation generated by 3-[…] bromide (J Helminth (1987) 60, 271). Firstly, Compounds 1, 2, 4, 5, 7, 8, 9, 11 and 12, along with artemisinin and arteether were tested using parasites, medium, cells and test drug.

Onchocerca gutturosa [7] = assay: Activity against Onchocerca gutturosa, tetrazolium colorimetric test (parasites, medium and test drugs); format: cell-based; conditions: without cells
Description: as §2
Secondly, Compounds 2, 3, 4, 7, 8, 9, and 12, artemisinin and arteether were tested using parasites, medium and test drugs.

[8] = system: chloroquine-resistant strains of P. falciparum; conditions: in words; background, Science 228, 1049 (1985); cited from earlier work
[9] = in words, 7 days, after an induction period
[10] = in words, two to three days exposure

Structure (SMILES): C1=C(c2ccccc2)C[C@@]2(c3ccccc3)OOC3(CCCC3)O[C@@H]12 (relative stereo) [Compound 1 (Table 4)]
- reduction of motility (Onchocerca gutturosa [1]; after 7 days): 100%
- effect on worm motility (Onchocerca gutturosa [1]; [9]): completely stopped morality
- Mean T. gondii per infected vacuole (T. gondii [2]; 6.8 mg ml^-1, 22 h): 1.8
- % infected cells (T. gondii [2]; 6.8 mg ml^-1, 22 h): 23%
- T. gondii per 100 cells (T. gondii [2]; 6.8 mg ml^-1, 22 h): 46
- block of parasite growth (T. gondii [2]): able to block parasite growth
- Mean T. gondii per infected vacuole (T. gondii [3]; 6.8, 18 h): 1.6
- % infected cells (T. gondii [3]; 6.8, 18 h): 19%
- T. gondii per 100 cells (T. gondii [3]; 6.8, 18 h): 38
- activity compared with pyrimethamine and pyrimethamine + sulfadiazine (T. gondii [3]): comparable to that of pyrimethamine, and pyrimethamine in combination with sulfadiazine
- inhibition of the intracellular growth of toxoplasma (T. gondii [3]): confirmed the inhibition of the intracellular growth of toxoplasma

Structure (SMILES): C1=C(c2ccccc2)C[C@@]2(c3ccccc3)OOC3(CCSCC3)O[C@@H]12 (relative stereo) [Compound 2 (Table 4)]
- reduction of motility (Onchocerca gutturosa [1]; after 7 days): 100%
- effect on worm motility (Onchocerca gutturosa [1]; [10]): markedly inhibitory
- Mean T. gondii per infected vacuole (T. gondii [2]; 5.3 mg ml^-1, 22 h): 1.3
- % infected cells (T. gondii [2]; 5.3 mg ml^-1, 22 h): 23%
- T. gondii per 100 cells (T. gondii [2]; 5.3 mg ml^-1, 22 h): 38
- block of parasite growth (T. gondii [2]): able to block parasite growth
- Mean T. gondii per infected vacuole (T. gondii [3]; 5.3, 18 h): 1.2
- % infected cells (T. gondii [3]; 5.3, 18 h): 14%
- T. gondii per 100 cells (T. gondii [3]; 5.3, 18 h): 35
- activity compared with pyrimethamine and pyrimethamine + sulfadiazine (T. gondii [3]): comparable to that of pyrimethamine, and pyrimethamine in combination with sulfadiazine
- inhibition of the intracellular growth of toxoplasma (T. gondii [3]): confirmed the inhibition of the intracellular growth of toxoplasma
- motility (Onchocerca gutturosa [4]; after 2-3 days): less than 1

Structure (SMILES): C1=C(c2ccccc2)C[C@@]2(c3ccccc3)OOC3(CCOCC3)O[C@@H]12 (relative stereo) [Compound 3 (Table 4)]
- effectiveness in the motility test (Onchocerca gutturosa [1]; in words, overall): not so effective
- effect on worm motility (Onchocerca gutturosa [4]; after 2-3 days): performed poorly

Structure (SMILES): O=C1CCC2(CC1)OO[C@]1(c3ccccc3)CC(c3ccccc3)=C[C@@H]1O2 (relative stereo) [Compound 4 (Table 4)]
- reduction of motility (Onchocerca gutturosa [1]; after 7 days): 100%
- effect on worm motility (Onchocerca gutturosa [1]; in words, one day exposure): significantly effective
- effect on worm motility (Onchocerca gutturosa [4]; after one day): immediate response

Structure (SMILES): CC1(C)OO[C@]2(c3ccccc3)CC(c3ccccc3)=C[C@@H]2O1 (relative stereo) [Compound 5 (Table 4)]
- reduction of motility (Onchocerca gutturosa [1]; after 7 days): 100%
- effect on worm motility (Onchocerca gutturosa [1]; in words, one day exposure): significantly effective

Structure (SMILES): O=C1C(c2ccccc2)=C[C@@]2(c3ccccc3)OOC3(CCCCC3)O[C@@H]12 (relative stereo) [Compound 6 (Table 4)]
- Mean T. gondii per infected vacuole (T. gondii [3]; 54, 18 h): 1.9
- % infected cells (T. gondii [3]; 54, 18 h): 20%
- T. gondii per 100 cells (T. gondii [3]; 54, 18 h): 43
- activity compared with pyrimethamine and pyrimethamine + sulfadiazine (T. gondii [3]): comparable to that of pyrimethamine, and pyrimethamine in combination with sulfadiazine
- inhibition of the intracellular growth of toxoplasma (T. gondii [3]): confirmed the inhibition of the intracellular growth of toxoplasma

Structure (SMILES): CC1(C)OO[C@@]2(c3ccc(Cl)cc3)CC(c3ccc(Cl)cc3)=C[C@H]2O1 (relative stereo) [Compound 6]
- immunomodulatory activity [5]: most important activity

Structure (SMILES): O[C@@H]1C(c2ccccc2)=C[C@@]2(c3ccccc3)OOC3(CCOCC3)O[C@@H]12 (relative stereo) [Compound 7 (Table 4)]
- reduction of motility (Onchocerca gutturosa [1]; after 7 days): 100%
- effect on worm motility (Onchocerca gutturosa [1]; [9]): completely stopped morality
- motility (Onchocerca gutturosa [4]; after 2-3 days): less than 1

Structure (SMILES): O[C@@H]1C(c2ccccc2)=C[C@@]2(c3ccccc3)OOC3(CCCC3)O[C@@H]12 (relative stereo) [Compound 8 (Table 4)]
- reduction of motility (Onchocerca gutturosa [1]; after 7 days): 100%
- effect on worm motility (Onchocerca gutturosa [1]; [10]): markedly inhibitory
- effect on worm motility (Onchocerca gutturosa [4]; after one day): immediate response

Structure (SMILES): O[C@@H]1C(c2ccccc2)=C[C@@]2(c3ccccc3)OOC3(CCCCC3)O[C@@H]12 (relative stereo) [Compound 9 (Table 4)]
- reduction of motility (Onchocerca gutturosa [1]; after 7 days): 100%
- effect on worm motility (Onchocerca gutturosa [1]; in words, one day exposure): immediately immobilized worms in less than a day
- effect on worm motility (Onchocerca gutturosa [1]; [10]): markedly inhibitory
- effect on worm motility (Onchocerca gutturosa [4]; after one day): immediate response
- inhibition at 50 µM (Onchocerca gutturosa [6]): > 90%

Structure (SMILES): Cc1ccc(C2=C[C@@]3(c4ccc(C)cc4)OOC4(CCCCC4)O[C@H]3C2=O)cc1 (relative stereo) [Compound 11 (Table 4)]
- reduction of motility (Onchocerca gutturosa [1]; after 7 days): 100%
- effect on worm motility (Onchocerca gutturosa [1]; in words, one day exposure): significantly effective
- inhibition at 50 µM (Onchocerca gutturosa [6]): > 90%

Structure (SMILES): CC1(C)OO[C@]2(c3ccccc3)CCC(c3ccccc3)=C[C@@H]2O1 (relative stereo) [Compound 12 (Table 4)]
- reduction of motility (Onchocerca gutturosa [1]; after 7 days): 100%
- effect on worm motility (Onchocerca gutturosa [1]; [10]): markedly inhibitory
- motility (Onchocerca gutturosa [4]; after 2-3 days): less than 1
- inhibition at 50 µM (Onchocerca gutturosa [6]): > 90%

Structure (SMILES): C1=C(c2ccccc2)C[C@]2(c3ccccc3)OOC3(CCOCC3)O[C@H]12 (relative stereo) [Compound 12]
- immunomodulatory activity [5]: most important activity

Structure (SMILES): CCc1nc(N)nc(N)c1-c1ccc(Cl)cc1 [P, pyrimethamine, reference compound]
- Mean T. gondii per infected vacuole (T. gondii [3]; 1, 18 h): 1.2
- % infected cells (T. gondii [3]; 1, 18 h): 14%
- T. gondii per 100 cells (T. gondii [3]; 1, 18 h): 33

Structure (SMILES): CCO[C@H]1O[C@@H]2O[C@@]3(C)CC[C@H]4[C@H](C)CC[C@@H]([C@H]1C)[C@@]24OO3 [arteether, reference compound]
- reduction of motility (Onchocerca gutturosa [1]; after a day, 1440 min): 30%
- inhibition of formazan formation (Onchocerca gutturosa [7]; in words): ineffective
- motility (Onchocerca gutturosa [4]; after 4 days): 4
- motility (Onchocerca gutturosa [4]; after 7 days): 2
- inhibition of formazan formation (Onchocerca gutturosa [6]): about 40%

Structure (SMILES): C[C@@H]1CC[C@H]2[C@@H](C)C(=O)O[C@@H]3O[C@@]4(C)CC[C@@H]1[C@]32OO4 [artemisinin, reference compound]
- activity of Qinghaosu against chloroquine-resistant strains [8]: remarkably active
- effect on worm motility (Onchocerca gutturosa [1]; in words, one day exposure): ineffective
- inhibition of formazan formation (Onchocerca gutturosa [7]): about 25%
- reduction of motility (Onchocerca gutturosa [4]; without cells ("under these conditions")): 30-40%
- inhibition of formazan formation (Onchocerca gutturosa [6]; in words): ineffective
